Measured values from US20240409934A1, “FOXO1-TARGETED THERAPY FOR THE TREATMENT OF CANCER” (BOARD OF REGENTS, THE UNIVERSITY OF TEXAS SYSTEM, priority 2021, published 2024).

Assays:
[1] = tested on: LN229; experiment: Colony formation assay (crystal violet); assay type: cell-based; conditions: treated five days
Method: (§1) Cell culture and drug treatments. Cell lines were obtained from ATCC (American Type Culture Collection, Manassas, VA) and grown under standard conditions (5% CO2, 10% FBS (fetal bovine serum), with 5% antifungal/antibacterial). Cell lines were tested for Mycoplasma using the MycoAlert Mycoplasma Detection Kit (Lonza, Basel Switzerland, cat: LT07-218); all experiments were done with mycoplasma negative cells. U87MG cells were propagated in MEM (Minimal Essential Medium). BT549 and DBTRG cells were propagated in RPMI (Roswell Park Memorial Institute 1640 Medium). LN18, U118MG, A172 and LN229 cells were propagated in DMEM (Dulbecco's Modified Eagle Medium). Neurosphere/cancer stem cell cultures for U87MG and BT549 cell lines were plated with 40,000 cells per mL in 3D Tumorsphere Medium XF (Sigma cat: C-28070, Burlington, MA). BT549 cancer stem cell cultures were supplemented with 1XB27 XenoFree CTS (Gibco/Thermo Fisher Waltham, MA, USA). AS1842856 was purchased from Calbiochem (Danvers, MA) and utilized at 200 nM, 500 nM and 1 μM final concentrations as indicated. AS1708727 was purchased from MedChem Express (Monmouth Junction, NJ) and was used at 0.5 μM, 1.0 µM and 2.0 μM concentrations. 5-aza-2′-deoxycytidine (5-AZA) was purchased from Millipore/Sigma (Burlington, MA) and utilized at a final concentration of 3 μM. Cells were plated at a density of 2,700 cells per mL and were treated five days with indicated drug. Treatments were investigated in triplicate (in numerous independent experiments) and stained with crystal violet. Plates were aspirated of media then each well was washed with 1.0 mL of 1x phosphate buffered saline (PBS) once before being stained with 1.0 mL of crystal violet stain (0.5% crystal violet in buffered formalin) and incubated for 15 minutes. The stain was aspirated, and wells were washed 3 times with 0.5 mL of 1x PBS. After collections were completed, crystal violet-stained plates were solubilized using 0.5 mL on each well of 10% acetic acid and placed on shaker for 1 hour. Solubilized samples were transferred to 96 well plates and quantified on a spectrophotometer at 590 nm. Quantified plates were analyzed with a Tukey test. Error bars were added using the standard deviation. Cells were plated at 2,700 cells per mL and were treated five days with the indicated drug. Treatments were investigated in triplicate (in numerous independent experiments) and stained with crystal violet. Plates were aspirated of media, then each well was washed with 1.0 mL of 1× phosphate-buffered saline (PBS) once before being stained with 1.0 mL of crystal violet stain (0.5% crystal violet in buffered formalin) and incubated for 15 minutes. The stain was aspirated, and cells were washed three times with 0.5 mL of 1×PBS. After collections were completed, crystal violet-stained plates were solubilized using 0.5 mL on each well of 10% acetic acid and placed on a shaker for 1 hour. Solubilized samples were transferred to 96 well plates and quantified on a spectrophotometer at 590 nm using iMark Microplate Absorbance Reader (Bio-Rad, Hercules, CA). Quantified plates were analyzed with a Tukey Test. Error bars were added using the standard deviation.

[2] = tested on: BT549; experiment: Colony formation assay (crystal violet); assay type: cell-based; conditions: treated five days
Method: as §1

[3] = tested on: LN18; experiment: Colony formation assay (crystal violet); assay type: cell-based; conditions: treated five days
Method: as §1

[4] = tested on: A172; experiment: Colony formation assay (crystal violet); assay type: cell-based; conditions: treated five days
Method: as §1

[5] = tested on: U87MG cells; experiment: Colony formation assay (crystal violet); assay type: cell-based
Method: as §1

[6] = tested on: SW480; experiment: Colony formation assay (crystal violet); assay type: cell-based; conditions: treated five days
Method: [The procedure below names another cell line; the source lists this cell line under the same test.] as §1

[7] = target: FOXO1 (Homo sapiens, UniProt Q12778); conditions: cited from earlier work
[8] = tested on: HCT116; experiment: Colony formation assay (crystal violet); assay type: cell-based; conditions: treated five days
[9] = tested on: BT549 cells; experiment: Gene expression by qRT-PCR (TUBB reference); assay type: cell-based
Method: (§2) Cell culture and drug treatments. Cell lines were obtained from ATCC (American Type Culture Collection, Manassas, VA) and grown under standard conditions (5% CO2, 10% FBS (fetal bovine serum), with 5% antifungal/antibacterial). Cell lines were tested for Mycoplasma using the MycoAlert Mycoplasma Detection Kit (Lonza, Basel Switzerland, cat: LT07-218); all experiments were done with mycoplasma negative cells. U87MG cells were propagated in MEM (Minimal Essential Medium). BT549 and DBTRG cells were propagated in RPMI (Roswell Park Memorial Institute 1640 Medium). LN18, U118MG, A172 and LN229 cells were propagated in DMEM (Dulbecco's Modified Eagle Medium). Neurosphere/cancer stem cell cultures for U87MG and BT549 cell lines were plated with 40,000 cells per mL in 3D Tumorsphere Medium XF (Sigma cat: C-28070, Burlington, MA). BT549 cancer stem cell cultures were supplemented with 1XB27 XenoFree CTS (Gibco/Thermo Fisher Waltham, MA, USA). AS1842856 was purchased from Calbiochem (Danvers, MA) and utilized at 200 nM, 500 nM and 1 μM final concentrations as indicated. AS1708727 was purchased from MedChem Express (Monmouth Junction, NJ) and was used at 0.5 μM, 1.0 µM and 2.0 μM concentrations. 5-aza-2'-deoxycytidine (5-AZA) was purchased from Millipore/Sigma (Burlington, MA) and utilized at a final concentration of 3 μM. Total RNA was prepared using the Qiagen RNeasy kit (Hilden, Germany), which was then used to generate cDNA using Superscript Reverse Transcriptase II (Invitrogen, Carlsbad, CA). Samples (cDNAs) were analyzed using (Power SYBR Green Master Mix, Applied Biosystems, Foster City, CA) and the ABI Step-One Real-time system (Carlsbad, CA). Expression levels were normalized to Beta-Tubulin, TUBB in gene expression experiments and calculated using 2-4ACT method (Livak et al., 2001). Primer sequences are detailed in Table 1. MDA-MB-468 cells were grown to log phase in DMEM with 10% FBS without antibiotics. BT549 cells were grown to log phase in DMEM with 10% FBS without antibiotics. Cells were transfected with FOXO1 esiRNA (EHU156591 Sigma, St. Louis, MO) or EGFP control esiRNA (EHUEGFP) using Lipofectamine 3000 (utilized only […] reagent, Invitrogen, Carlsbad, CA).

[10] = tested on: MDA-MB-468 cells; experiment: Gene expression by qRT-PCR (TUBB reference); assay type: cell-based
Method: as §2

Chain of FOXO1 (Q12778 whole entry, species assumed): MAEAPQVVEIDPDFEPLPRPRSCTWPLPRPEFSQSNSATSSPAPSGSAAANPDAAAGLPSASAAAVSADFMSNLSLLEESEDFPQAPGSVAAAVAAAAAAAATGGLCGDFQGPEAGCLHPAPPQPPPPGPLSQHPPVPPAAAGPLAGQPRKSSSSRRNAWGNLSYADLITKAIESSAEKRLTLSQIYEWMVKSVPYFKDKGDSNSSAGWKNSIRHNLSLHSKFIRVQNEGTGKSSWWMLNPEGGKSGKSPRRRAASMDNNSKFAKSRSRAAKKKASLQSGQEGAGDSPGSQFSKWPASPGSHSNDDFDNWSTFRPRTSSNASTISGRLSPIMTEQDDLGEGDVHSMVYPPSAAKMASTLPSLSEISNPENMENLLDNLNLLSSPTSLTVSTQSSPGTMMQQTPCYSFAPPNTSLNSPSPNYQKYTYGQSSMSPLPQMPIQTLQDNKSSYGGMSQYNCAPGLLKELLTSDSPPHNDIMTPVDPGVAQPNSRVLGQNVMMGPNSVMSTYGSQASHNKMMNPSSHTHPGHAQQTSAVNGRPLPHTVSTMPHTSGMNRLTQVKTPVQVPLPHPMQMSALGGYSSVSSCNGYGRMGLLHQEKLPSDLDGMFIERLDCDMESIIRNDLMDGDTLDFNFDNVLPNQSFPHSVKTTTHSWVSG

CCn1cc(C(=O)O)c(=O)c2c(N)c(F)c(NC3CCCCC3)cc21 [AS1842856, 5-Amino-7-(cyclohexylamino)-1-ethyl-6-fluoro-4-oxo-1,4-dihydroquinoline-3-carboxylic acid]
colony formation [1]: fewer cells with 200 nM drug treatment with further reductions using 500 nM and 1 μM drug
colony formation [2]: fewer cells with 200 nM drug treatment with further reductions using 500 nM and 1 μM drug
colony formation [3]: fewer cells with 200 nM drug treatment with further reductions using 500 nM and 1 μM drug
colony formation [4]: fewer cells with 200 nM drug treatment with further reductions using 500 nM and 1 μM drug
colony number [5]: colony number was not significantly impacted
colony formation [6]: Significantly reduced colony formation
FOXO1 DNA binding and transactivation [7]: reduces DNA binding and transactivation
colony formation [8]: Significantly reduced colony formation
FAS and BIM gene induction, comparison of the two inhibitors [9]: robustly caused FAS and BIM
FOXO1 gene expression ([9]; 1 μM for 48 hours): increased FOXO1 gene expression
apoptotic genes FAS and/or BIM expression ([9]; 1 μM for 48 hours): induced apoptotic genes FAS and/or BIM
FAS and BIM gene induction, comparison of the two inhibitors [10]: robustly caused FAS and BIM
apoptotic genes FAS and/or BIM expression ([10]; 1 μM for 48 hours): induced apoptotic genes FAS and/or BIM
FOXO1 expression ([10]; 48 hours of treatment): decreased FOXO1 expression
